Test results: patent US20150105252A1, “SUBSTITUTED PYRAZOLES AS HERBICIDES” (E I DU PONT DE NEMOURS AND COMPANY, priority 2013, published 2015)

Columns and labels:
foxtail, giant = experiment: Test A preemergence; assay type: in vivo, Setaria faberii; conditions: 0 to 100 scale
In short: (§1)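 Visual injury ratings, 0 = no effect to 100 = complete control, taken about 10 days after treatment against untreated controls. Test chemicals, in a non-phytotoxic surfactant-containing solvent, were sprayed onto soil preemergence or onto one- to two-leaf plants (2–10 cm) postemergence, in loam–sand soil under greenhouse conditions.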

pigweed = experiment: Test A preemergence; assay type: in vivo, Amaranthus retroflexus; conditions: 0 to 100 scale
In short: as §1

ducksalad = experiment: Test B flood; assay type: in vivo, Heteranthera limosa; conditions: 250 g ai/ha, visual rating on 0 to 100 scale (0 no effect, 100 complete control), 13 to 15 days
In short: (§2)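 Plants were grown to the 2-leaf stage, then pots were flooded to 3 cm above the soil and compounds were applied directly into the paddy water. Water depth was held for the whole test; after 13 to 15 days in a greenhouse, injury was visually rated against untreated controls (0 = no effect, 100 = complete control).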

barnyardgrass [1] = experiment: Test C preemergence; assay type: in vivo, Echinochloa crus-galli
In short: (§3)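 Postemergence values come from plants sprayed at the 1- to 4-leaf stage (2–18 cm) in peat moss–vermiculite medium; preemergence values from seeds treated in a loam–sand blend. Both evaluated visually against controls after 13–15 greenhouse days, scale 0–100.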

galium [2] = experiment: Test C preemergence; assay type: in vivo, Galium aparine
In short: as §3

wheat = experiment: Test A postemergence; assay type: in vivo, Triticum aestivum
In short: as §1

corn [3] = experiment: Test C preemergence; assay type: in vivo, Zea mays
In short: as §3

galium [4] = experiment: Test C postemergence; assay type: in vivo, Galium aparine; conditions: for Plant response rating (scale of 0 to 100), Galium: 16 g ai/ha; for Galium plant response rating: scale 0 to 100; for Plant response rating (scale of 0 to 100 where 0 is no effect and 100 is complete control), Galium: visually evaluated after 13 to 15 days
In short: as §3

sedge, umbrella = experiment: Test B flood; assay type: in vivo, Cyperus difformis; conditions: 250 g ai/ha, visual rating on 0 to 100 scale (0 no effect, 100 complete control), 13 to 15 days
In short: as §2

velvetleaf = experiment: Test A preemergence; assay type: in vivo, Abutilon theophrasti; conditions: 0 to 100 scale
In short: as §1

corn [5] = experiment: Test A preemergence; assay type: in vivo, Zea mays; conditions: 0 to 100 scale
In short: as §1

blackgrass = experiment: Test C postemergence; assay type: in vivo, Alopecurus myosuroides; conditions: for Plant response rating (scale of 0 to 100), Blackgrass: 16 g ai/ha; for Blackgrass plant response rating: scale 0 to 100; for Plant response rating (scale of 0 to 100 where 0 is no effect and 100 is complete control), Blackgrass: visually evaluated after 13 to 15 days
In short: as §3

barnyardgrass [6] = experiment: Test A preemergence; assay type: in vivo, Echinochloa crus-galli; conditions: 0 to 100 scale
In short: as §1

oilseed rape = experiment: Test C postemergence; assay type: in vivo, Brassica napus; conditions: for Plant response rating (scale of 0 to 100), Oilseed Rape: 16 g ai/ha; for Oilseed Rape plant response rating: scale 0 to 100; for Plant response rating (scale of 0 to 100 where 0 is no effect and 100 is complete control), Oilseed Rape: visually evaluated after 13 to 15 days
In short: as §3

[7] = Preemergence, 500 g ai/ha, 0 no effect, 100 complete control
[8] = preemergence, 125 g ai/ha, visual injury, approx. 10 days
[9] = Preemergence, 16 g ai/ha, scale 0 to 100
[10] = preemergence, 31 g ai/ha, scale 0 to 100 (0 no effect, 100 complete control), 13 to 15 days
[11] = preemergence, 62 g ai/ha, 13 to 15 days, scale 0 to 100, 0 = no effect, 100 = complete control
[12] = preemergence, 125 g ai/ha, scale 0 to 100, 0 is no effect, 100 is complete control
[13] = Postemergence, 500 g ai/ha, visual rating after approx. 10 days, 0 to 100 scale (0 no effect, 100 complete control)
[14] = postemergence, 125 g ai/ha, about 10 days, visual rating on 0 to 100 scale (0 no effect, 100 complete control)
[15] = postemergence, 125 g ai/ha, scale 0 to 100, 0 no effect, 100 complete control
[16] = postemergence, 250 g ai/ha, scale 0 to 100 (0 no effect, 100 complete control)

| SMILES | Foxtail, Giant plant response rating (foxtail, giant; [7]) | Foxtail, Giant plant response rating (foxtail, giant; [8]) | Pigweed plant response rating (pigweed; [7]) | Pigweed plant response rating (pigweed; [8]) | Plant response rating, Ducksalad (ducksalad) | Barnyardgrass plant response rating (barnyardgrass [1]; [10]) | Plant response rating, Barnyardgrass (barnyardgrass [1]; [11]) | Barnyardgrass plant response rating (barnyardgrass [1]; [12]) | Galium plant response rating (galium [2]; [10]) | Plant response rating, Galium (galium [2]; [11]) | Galium plant response rating (galium [2]; [12]) | Wheat plant response rating (wheat; [13]) | Wheat plant response rating (wheat; [14]) | Corn plant response rating (corn [3]; [10]) | Plant response rating, Corn (corn [3]; [11]) | Corn plant response rating (corn [3]; [12]) | Galium plant response rating (galium [4]; postemergence, 62 g ai/ha) | Plant response rating, Galium (galium [4]; [15]) | Plant response rating, Sedge, Umbrella (sedge, umbrella) | Velvetleaf plant response rating (velvetleaf; [7]) | further results |
| --- | --- | --- | --- | --- | --- | --- | --- | --- | --- | --- | --- | --- | --- | --- | --- | --- | --- | --- | --- | --- | --- |
| CCCNC(=O)c1cc(CC)n(Cc2ccnc(C(F)(F)F)c2)n1 [Compound 75] | 100 | 100 | 100 | 100 | 85 | 100 | 100 | 100 | 100 | 100 | 100 | 90 | 80 | 60 | 98 | 100 | 60 | 65 | 85 | 100 | Plant response rating, Barnyardgrass (barnyardgrass [1]; [9]): 60; Plant response rating, Galium (galium [2]; [9]): 90; Plant response rating, Corn (corn [3]; [9]): 10; Plant response rating (scale of 0 to 100), Galium (galium [4]; Postemergence): 50; Galium plant response rating (galium [4]; Postemergence, 31 g ai/ha): 60; Velvetleaf plant response rating (velvetleaf; [8]): 80; Corn plant response rating (corn [5]; [7]): 90; Corn plant response rating (corn [5]; [8]): 80; Plant response rating (scale of 0 to 100), Blackgrass (blackgrass; Postemergence): 5; Blackgrass plant response rating (blackgrass; Postemergence, 31 g ai/ha): 5; Blackgrass plant response rating (blackgrass; postemergence, 62 g ai/ha): 10; Plant response rating, Blackgrass (blackgrass; [15]): 15; Barnyardgrass plant response rating (barnyardgrass [6]; [7]): 100; Barnyardgrass plant response rating (barnyardgrass [6]; [8]): 100; Plant response rating (scale of 0 to 100), Oilseed Rape (oilseed rape; Postemergence): 20; Oilseed Rape plant response rating (oilseed rape; Postemergence, 31 g ai/ha): 50; Oilseed Rape plant response rating (oilseed rape; postemergence, 62 g ai/ha): 50; Plant response rating, Oilseed Rape (oilseed rape; [15]): 60 |
| CCONC(=O)c1cc(CC)n(Cc2ccnc(C(F)(F)F)c2)n1 [Compound 77] | 100 | 100 | 100 | 100 | 80 | 20 | 75 | 100 | 0 | 5 | 10 | 50 | 40 | 0 | 15 | 55 | 15 | 20 | 80 | 80 | Plant response rating, Barnyardgrass (barnyardgrass [1]; [9]): 10; Plant response rating, Galium (galium [2]; [9]): 0; Plant response rating, Corn (corn [3]; [9]): 0; Plant response rating (scale of 0 to 100), Galium (galium [4]; Postemergence): 5; Plant response rating (scale of 0 to 100 where 0 is no effect and 100 is complete control), Galium (galium [4]; Postemergence, 31 g ai/ha): 5; Velvetleaf plant response rating (velvetleaf; [8]): 20; Corn plant response rating (corn [5]; [7]): 30; Corn plant response rating (corn [5]; [8]): 10; Plant response rating (scale of 0 to 100), Blackgrass (blackgrass; Postemergence): 0; Plant response rating (scale of 0 to 100 where 0 is no effect and 100 is complete control), Blackgrass (blackgrass; Postemergence, 31 g ai/ha): 5; Blackgrass plant response rating (blackgrass; postemergence, 62 g ai/ha): 5; Plant response rating, Blackgrass (blackgrass; [15]): 5; Barnyardgrass plant response rating (barnyardgrass [6]; [7]): 100; Barnyardgrass plant response rating (barnyardgrass [6]; [8]): 90; Plant response rating (scale of 0 to 100), Oilseed Rape (oilseed rape; Postemergence): 5; Plant response rating (scale of 0 to 100 where 0 is no effect and 100 is complete control), Oilseed Rape (oilseed rape; Postemergence, 31 g ai/ha): 5; Oilseed Rape plant response rating (oilseed rape; postemergence, 62 g ai/ha): 5; Plant response rating, Oilseed Rape (oilseed rape; [15]): 15 |
| CCc1cc(C(=O)NC2CC2)nn1Cc1ccnc(C(F)(F)F)c1 [Compound 76] | 100 | 80 | 100 | 100 | 85 | 95 | 100 | 100 | 98 | 100 | 100 | 90 | 80 | 40 | 80 | 100 | 75 | 90 | 80 | 60 | Plant response rating (scale of 0 to 100), Barnyardgrass (barnyardgrass [1]; Preemergence, 250 g ai/ha): 100; Plant response rating (scale of 0 to 100), Galium (galium [2]; Preemergence, 250 g ai/ha): 100; Plant response rating (scale of 0 to 100), Corn (corn [3]; Preemergence, 250 g ai/ha): 100; Plant response rating (scale of 0 to 100 where 0 is no effect and 100 is complete control), Galium (galium [4]; Postemergence, 31 g ai/ha): 70; Plant response rating, Galium (galium [4]; [16]): 90; Velvetleaf plant response rating (velvetleaf; [8]): 20; Corn plant response rating (corn [5]; [7]): 80; Corn plant response rating (corn [5]; [8]): 50; Plant response rating (scale of 0 to 100 where 0 is no effect and 100 is complete control), Blackgrass (blackgrass; Postemergence, 31 g ai/ha): 5; Blackgrass plant response rating (blackgrass; postemergence, 62 g ai/ha): 5; Plant response rating, Blackgrass (blackgrass; [16]): 10; Plant response rating, Blackgrass (blackgrass; [15]): 5; Barnyardgrass plant response rating (barnyardgrass [6]; [7]): 100; Barnyardgrass plant response rating (barnyardgrass [6]; [8]): 80; Plant response rating (scale of 0 to 100 where 0 is no effect and 100 is complete control), Oilseed Rape (oilseed rape; Postemergence, 31 g ai/ha): 30; Oilseed Rape plant response rating (oilseed rape; postemergence, 62 g ai/ha): 35; Plant response rating, Oilseed Rape (oilseed rape; [16]): 60; Plant response rating, Oilseed Rape (oilseed rape; [15]): 55 |
